From US20070259948A1, “Compounds with antifungal properties and process thereof” (priority 2006, published 2007) come the findings set out here.

Converted amounts (≈) assume the structure as drawn.

Test in all cases: Antifungal susceptibility testing (minimum inhibitory concentration), soyabean casein digest broth
What all share (assay type): cell-based

Assay [1] relates to C. albicans. The following applies: Candida albicans; end points after 48 hours, visually / spectrophotometer; NI till x = no inhibition up to x; read-out: Activity against organisms In μg/ml, C. albicans (minimum inhibitory concentration). The procedure: (§1) In vitro evaluation of antifungal activity can be performed by determining the minimum inhibitory concentration. Anti-fungal susceptibility testing of these anti-fungal compounds was done by conventional method using soyabean casein digest broth. Known anti-fungal agents like Fluconazole and amphotericin-B were used as positive control. End points were determined after 48 hours visually and by using Spectrophotometer wherever necessary. Different dilutions were tried and the set of experiments.

In assay [2] the test system is A. niger. The note with it: Aspergillus niger; end points after 48 hours, visually / spectrophotometer; NI till x = no inhibition up to x; read-out: Activity against organisms In μg/ml, A. niger (minimum inhibitory concentration). As for the experimental part: as §1
The test system of assay [3] is F. proliferatum. The note with it: Fusarium proliferatum; end points after 48 hours, visually / spectrophotometer; NI till x = no inhibition up to x; read-out: Activity against organisms In μg/ml, F. proliferatum (minimum inhibitory concentration). The procedure: as §1

Regarding `O=C1OC(COC(=O)c2ccccc2)C=C1c1ccc(Cl)c(Cl)c1` (stereo not drawn) [1AA, 3,4-dichlorophenyl-5-benzoyloxymethyl-2H,5H-furan-2-one], the MIC in assay [1] amounted to 4 µg/mL (≈ 11 µM); in assay [2] it was 2 µg/mL (≈ 5.51 µM); in assay [3], 1 µg/mL (≈ 2.75 µM).
With `O=C1OC(COC(=O)c2ccccc2)C=C1c1cccc(Cl)c1` (stereo not drawn) [1AB, 3-chlorophenyl-5-benzoyloxymethyl-2H,5H-furan-2-one], the results for the MIC in assay [1], in assay [2] and in assay [3] were 2 µg/mL (≈ 6.08 µM), 2 µg/mL (≈ 6.08 µM) and 0.5 µg/mL (≈ 1.52 µM), respectively.
Consider `O=C1OC(COC(=O)c2ccccc2)C=C1c1cccc(Br)c1` (stereo not drawn) [1AC, 3-bromophenyl-5-benzoyloxymethyl-2H,5H-furan-2-one], for which the MIC in assay [1] stood at 2 µg/mL (≈ 5.36 µM); in assay [2], 4 µg/mL (≈ 10.7 µM); in assay [3] it was 0.5 µg/mL (≈ 1.34 µM).
As to `O=C1OC(COC(=O)c2ccccc2)C=C1c1cccc(F)c1` (stereo not drawn) [1AD, 3-fluorophenyl-5-benzoyloxymethyl-2H,5H-furan-2-one], the MIC in assay [1], in assay [2] and in assay [3] was 1 to 2 µg/mL (≈ 3.2 to 6.4 µM) in each case.
Regarding `COc1ccc(C2=CC(COC(=O)c3ccccc3)OC2=O)cc1Br` (stereo not drawn) [1AE, 3-bromo-4-methoxyphenyl-5-benzoyloxymethyl-2H,5H-furan-2-one], the MIC in assay [1], in assay [2] and in assay [3] was greater than 2 µg/mL each time.
As for `CC(=O)OCC1C=C(c2cccc(Br)c2)C(=O)O1` (stereo not drawn) [1BC, 3-bromophenyl-5-acetxymethyl-2H,5H-furan-2-one], the results for the MIC in assay [1], in assay [2] and in assay [3] were 2 µg/mL (≈ 6.43 µM), 4 µg/mL (≈ 12.9 µM) and 2 µg/mL (≈ 6.43 µM), respectively.
`CC(=O)OCC1C=C(c2cccc(F)c2)C(=O)O1` (stereo not drawn) [1BD, 3-fluorophenyl-5-acetxymethyl-2H,5H-furan-2-one]: the MIC in assay [1], in assay [2] and in assay [3] was 1 to 2 µg/mL (≈ 4 to 7.99 µM) each time.
Consider `COc1ccc(C2=CC(COC(C)=O)OC2=O)cc1Br` (stereo not drawn) [1BE, 3-bromo-4-methoxyphenyl-5-acetoxymethyl-2H,5H-furan-2-one], for which the MIC was in the range of 2 to 4 µg/mL (≈ 5.86 to 11.7 µM) in assay [1], 4 to 8 µg/mL (≈ 11.7 to 23.4 µM) in assay [2] and 8 to 16 µg/mL (≈ 23.4 to 46.9 µM) in assay [3].
Regarding `C=CCC(=O)OCC1C=C(c2ccc(Cl)c(Cl)c2)C(=O)O1` (stereo not drawn) [1CA, 3,4-dichlorophenyl-5-allyloyloxymethyl-2H,5H-furan-2-one], the figures for the MIC in assay [1], in assay [2] and in assay [3] were 2 µg/mL (≈ 6.11 µM), 1 µg/mL (≈ 3.06 µM) and 1 µg/mL (≈ 3.06 µM), respectively.
On to `C=CCC(=O)OCC1C=C(c2cccc(Cl)c2)C(=O)O1` (stereo not drawn) [1CB, 3-chlorophenyl-5-allyloyloxymethyl-2H,5H-furan-2-one], for which the values for the MIC in assay [1], in assay [2] and in assay [3] were 4 µg/mL (≈ 13.7 µM), 8 µg/mL (≈ 27.3 µM) and 2 µg/mL (≈ 6.83 µM), respectively.
In the case of `C=CCC(=O)OCC1C=C(c2cccc(Br)c2)C(=O)O1` (stereo not drawn) [1CC, 3-bromophenyl-5-allyloyloxymethyl-2H,5H-furan-2-one], the figures for the MIC in assay [1], in assay [2] and in assay [3] were 4 µg/mL (≈ 11.9 µM), 8 µg/mL (≈ 23.7 µM) and 2 µg/mL (≈ 5.93 µM), respectively.
For the compound `C=CCC(=O)OCC1C=C(c2ccc(OC)c(Br)c2)C(=O)O1` (stereo not drawn) [1CE, 3-bromo-4-methoxyphenyl-5-allyloyloxymethyl-2H,5H-furan-2-one], the MIC in assay [1] is 2 to 4 µg/mL (≈ 5.45 to 10.9 µM); in assay [2], greater than 8 µg/mL; in assay [3], greater than 8 µg/mL.
In the case of `O=C1OC(COC(=O)c2cccs2)C=C1c1ccc(Cl)c(Cl)c1` (stereo not drawn) [1DA, 4-(3,4-dichlorophenyl)-5-oxo-2,5-dihydrofuran-2-ylmethyl thiophene-2-carboxylate], the MIC in assay [1] stood at 2 µg/mL (≈ 5.42 µM); in assay [2], 1 µg/mL (≈ 2.71 µM); in assay [3], 2 µg/mL (≈ 5.42 µM).
Consider `O=C1OC(COC(=O)c2cccs2)C=C1c1cccc(Cl)c1` (stereo not drawn) [1DB, 4-(3-chlorophenyl)-5-oxo-2,5-dihydrofuran-2-ylmethyl thiophene-2-carboxylate], for which the MIC in assay [1] is 2 µg/mL (≈ 5.97 µM); in assay [2] it was 4 µg/mL (≈ 11.9 µM); in assay [3], 1 µg/mL (≈ 2.99 µM).
As for `O=C1OC(COC(=O)c2cccs2)C=C1c1cccc(Br)c1` (stereo not drawn) [1DC, 4-(3-bromophenyl)-5-oxo-2,5-dihydrofuran-2-ylmethyl thiophene-2-carboxylate], the results for the MIC in assay [1], in assay [2] and in assay [3] were 2 µg/mL (≈ 5.27 µM), 8 µg/mL (≈ 21.1 µM) and 2 µg/mL (≈ 5.27 µM), respectively.
In the case of `COc1ccc(C2=CC(COC(=O)c3cccs3)OC2=O)cc1Br` (stereo not drawn) [1DE, 4-(3-bromo-4-methoxyphenyl)-5-oxo-2,5-dihydrofuran-2-ylmethyl thiophene-2-carboxylate], the MIC in assay [1], in assay [2] and in assay [3] was greater than 2 µg/mL throughout.
For the compound `O=C1OC(COC(=O)c2ccsc2)C=C1c1ccc(Cl)c(Cl)c1` (stereo not drawn) [1EA, 4-(3,4-dichlorophenyl)-5-oxo-2,5-dihydrofuran-2-ylmethyl thiophene-3-carboxylate], the MIC was found to be 2 µg/mL (≈ 5.42 µM) in assay [1], 1 µg/mL (≈ 2.71 µM) in assay [2] and 2 µg/mL (≈ 5.42 µM) in assay [3].
As to `O=C1OC(COC(=O)c2ccsc2)C=C1c1cccc(Cl)c1` (stereo not drawn) [1EB, 4-(3-chlorophenyl)-5-oxo-2,5-dihydrofuran-2-ylmethyl thiophene-3-carboxylate], the results for the MIC in assay [1], in assay [2] and in assay [3] were 4 µg/mL (≈ 11.9 µM), 4 µg/mL (≈ 11.9 µM) and 2 µg/mL (≈ 5.97 µM), respectively.
For `O=C1OC(COC(=O)c2ccsc2)C=C1c1cccc(Br)c1` (stereo not drawn) [1EC, 4-(3-bromophenyl)-5-oxo-2,5-dihydrofuran-2-ylmethyl thiophene-3-carboxylate], the MIC stood at 2 µg/mL (≈ 5.27 µM) in assay [1], 2 µg/mL (≈ 5.27 µM) in assay [2] and 1 µg/mL (≈ 2.64 µM) in assay [3].
As to `COc1ccc(C2=CC(COC(=O)c3ccsc3)OC2=O)cc1Br` (stereo not drawn) [1EE, 4-(3-bromo-4-methoxyphenyl)-5-oxo-2,5-dihydrofuran-2-ylmethyl thiophene-3-carboxylate], the MIC in assay [1], in assay [2] and in assay [3] was greater than 2 µg/mL in each case.
`O=C1OC(COC(=O)c2cc(Br)c(Br)s2)C=C1c1ccc(Cl)c(Cl)c1` (stereo not drawn) [1FA, 4-(3,4-dichlorophenyl)-5-oxo-2,5-dihydrofuran-2-ylmethyl 4,5-dibromothiophene-2-carboxylate]: the MIC in assay [1], in assay [2] and in assay [3] was greater than 4 µg/mL in each case.
As to `O=C1OC(COC(=O)c2cc(Br)c(Br)s2)C=C1c1cccc(Cl)c1` (stereo not drawn) [1FB, 4-(3-chlorophenyl)-5-oxo-2,5-dihydrofuran-2-ylmethyl 4,5-dibromothiophene-2-carboxylate], the figures for the MIC in assay [1], in assay [2] and in assay [3] were 1 to 2 µg/mL (≈ 2.03 to 4.06 µM), 2 to 4 µg/mL (≈ 4.06 to 8.12 µM) and 1 to 2 µg/mL (≈ 2.03 to 4.06 µM), respectively.
In the case of `O=C1OC(COC(=O)c2cc(Br)c(Br)s2)C=C1c1cccc(Br)c1` (stereo not drawn) [1FC, 4-(3-bromophenyl)-5-oxo-2,5-dihydrofuran-2-ylmethyl 4,5-dibromothiophene-2-carboxylate], the MIC lay within 1 to 2 µg/mL (≈ 1.86 to 3.72 µM) in assay [1], 2 to 4 µg/mL (≈ 3.72 to 7.45 µM) in assay [2] and 1 to 2 µg/mL (≈ 1.86 to 3.72 µM) in assay [3].
Turning to `O=C(CCCl)OCC1C=C(c2ccc(Cl)c(Cl)c2)C(=O)O1` (stereo not drawn) [1GA, 4-(3,4-dichlorophenyl)-5-oxo-2,5-dihydrofuran-2-ylmethyl 3-chloropropionate], the MIC in assay [1] is 4 µg/mL (≈ 11.4 µM); in assay [2] it was 2 µg/mL (≈ 5.72 µM); in assay [3], 2 µg/mL (≈ 5.72 µM).
Turning to `O=C(CCCl)OCC1C=C(c2cccc(Cl)c2)C(=O)O1` (stereo not drawn) [1GB, 4-(3-chlorophenyl)-5-oxo-2,5-dihydrofuran-2-ylmethyl 3-chloropropionate], the MIC came out at 2 µg/mL (≈ 6.35 µM) in assay [1], 2 µg/mL (≈ 6.35 µM) in assay [2] and 4 µg/mL (≈ 12.7 µM) in assay [3].
In the case of `O=C(CCCl)OCC1C=C(c2cccc(Br)c2)C(=O)O1` (stereo not drawn) [1GC, 4-(3-bromophenyl)-5-oxo-2,5-dihydrofuran-2-ylmethyl 3-chloropropionate], the MIC was found to be 2 µg/mL (≈ 5.56 µM) in assay [1], 4 µg/mL (≈ 11.1 µM) in assay [2] and 2 µg/mL (≈ 5.56 µM) in assay [3].
Consider `COc1ccc(C2=CC(COC(=O)CCCl)OC2=O)cc1Br` (stereo not drawn) [1GE, 4-(3-bromo-4-methoxyphenyl)-5-oxo-2,5-dihydrofuran-2-ylmethyl 3-chloropropionate], for which the MIC in assay [1] was 4 to 8 µg/mL (≈ 10.3 to 20.5 µM); in assay [2], 4 to 8 µg/mL (≈ 10.3 to 20.5 µM); in assay [3], 8 to 16 µg/mL (≈ 20.5 to 41.1 µM).
On to `O=C(CCCCl)OCC1C=C(c2ccc(Cl)c(Cl)c2)C(=O)O1` (stereo not drawn) [1HA, 4-(3,4-dichlorophenyl)-5-oxo-2,5-dihydrofuran-2-ylmethyl 4-chlorobutyrate], for which the MIC in assay [1], in assay [2] and in assay [3] was 1 to 2 µg/mL (≈ 2.75 to 5.5 µM) each time.
Take `O=C(CCCCl)OCC1C=C(c2cccc(Cl)c2)C(=O)O1` (stereo not drawn) [1HB, 4-(3-chlorophenyl)-5-oxo-2,5-dihydrofuran-2-ylmethyl 4-chlorobutyrate]: the MIC in assay [1] lay in the range of 1 to 2 µg/mL (≈ 3.04 to 6.08 µM); in assay [2] it was 2 to 4 µg/mL (≈ 6.08 to 12.2 µM); in assay [3] it was 1 to 2 µg/mL (≈ 3.04 to 6.08 µM).
For the compound `O=C(CCCCl)OCC1C=C(c2cccc(Br)c2)C(=O)O1` (stereo not drawn) [1HC, 4-(3-bromophenyl)-5-oxo-2,5-dihydrofuran-2-ylmethyl 4-chlorobutyrate], the MIC in assay [1] lay within 1 to 2 µg/mL (≈ 2.68 to 5.35 µM); in assay [2] it was 4 to 8 µg/mL (≈ 10.7 to 21.4 µM); in assay [3], 1 to 2 µg/mL (≈ 2.68 to 5.35 µM).
On to `O=C(CCCCl)OCC1C=C(c2cccc(F)c2)C(=O)O1` (stereo not drawn) [1HD, 4-(3-fluorophenyl)-5-oxo-2,5-dihydrofuran-2-ylmethyl 4-chlorobutyrate], for which the MIC in assay [1], in assay [2] and in assay [3] was 1 to 2 µg/mL (≈ 3.2 to 6.4 µM) in each case.
For the compound `COc1ccc(C2=CC(COC(=O)CCCCl)OC2=O)cc1Br` (stereo not drawn) [1HE, 4-(3-bromo-4-methoxyphenyl)-5-oxo-2,5-dihydrofuran-2-ylmethyl 4-chlorobutyrate], the MIC in assay [1], in assay [2] and in assay [3] was greater than 4 µg/mL each time.
Consider `COc1ccc(C2=CC(COC(=O)CCCCCl)OC2=O)cc1Br` (stereo not drawn) [1IE, 4-(3-bromo-4-methoxyphenyl)-5-oxo-2,5-dihydrofuran-2-ylmethyl 5-chlorovalerate], for which the MIC in assay [1], in assay [2] and in assay [3] was greater than 8 µg/mL throughout.
